Columns and labels:
Assay in all cases: relative viability (nuclei count vs DMSO), 5 days (fraction); higher = more cells survive
[1] = compound: Cc1ccc(C(=O)Nc2ccc(CN3CCN(C)CC3)c(C(F)(F)F)c2)cc1C#Cc1cnc2cccnn12 [Ponatinib] + O=C(c1cc(Cc2n[nH]c(=O)c3ccccc23)ccc1F)N1CCN(C(=O)C2CC2)CC1 [Olaparib] (partner 8 µM)
How it was run: (§1)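 Lung cancer cell lines were pin-tool dosed in 1536-well plates on the day after seeding, with either a lone drug or a fixed anchor-drug dose plus five library-drug doses (not always all listed) in √10 steps. Nuclei were counted on 4× images after 5 days. Relative viability is the ratio of treated-well to vehicle-well nuclei counts, with each value a median of duplicate plates.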

[2] = compound: Cc1ccc(C(=O)Nc2ccc(CN3CCN(C)CC3)c(C(F)(F)F)c2)cc1C#Cc1cnc2cccnn12 [Ponatinib] + C[C@]1(O)C[C@@H](c2nc(-c3ccc4ccc(-c5ccccc5)nc4c3)c3c(N)nccn32)C1 [Linsitinib] (partner 1 µM)
How it was run: as §1

[3] = compound: Cc1ccc(C(=O)Nc2ccc(CN3CCN(C)CC3)c(C(F)(F)F)c2)cc1C#Cc1cnc2cccnn12 [Ponatinib] + CC(C)C[C@H](NC(=O)[C@H](Cc1ccccc1)NC(=O)c1cnccn1)B(O)O [Bortezomib] (partner 0.002 µM)
How it was run: as §1

[4] = compound: Cc1ccc(C(=O)Nc2ccc(CN3CCN(C)CC3)c(C(F)(F)F)c2)cc1C#Cc1cnc2cccnn12 [Ponatinib] + CS(=O)(=O)CCNCc1ccc(-c2ccc3ncnc(Nc4ccc(OCc5cccc(F)c5)c(Cl)c4)c3c2)o1 [Lapatinib] (partner 2 µM)
How it was run: as §1

[5] = compound: Cc1ccc(C(=O)Nc2ccc(CN3CCN(C)CC3)c(C(F)(F)F)c2)cc1C#Cc1cnc2cccnn12 [Ponatinib] + Cc1cc(Nc2cc(N3CCN(C)CC3)nc(Sc3ccc(NC(=O)C4CC4)cc3)n2)n[nH]1 [Tozasertib] (partner 0.1 µM)
How it was run: as §1

Cell Line	relative viability ([1]; first compound 0.002 µM)	relative viability ([1]; first compound 0.006325 µM)	relative viability ([1]; first compound 0.06325 µM)	relative viability ([1]; first compound 0.2 µM)	relative viability ([2]; first compound 0.002 µM)	relative viability ([2]; first compound 0.006325 µM)	relative viability ([2]; first compound 0.06325 µM)	relative viability ([2]; first compound 0.2 µM)	relative viability ([3]; first compound 0.002 µM)	relative viability ([3]; first compound 0.006325 µM)	relative viability ([3]; first compound 0.06325 µM)	relative viability ([3]; first compound 0.2 µM)	relative viability ([4]; first compound 0.002 µM)	relative viability ([4]; first compound 0.006325 µM)	relative viability ([4]; first compound 0.06325 µM)	relative viability ([4]; first compound 0.2 µM)	relative viability ([5]; first compound 0.002 µM)	relative viability ([5]; first compound 0.006325 µM)	relative viability ([5]; first compound 0.06325 µM)	relative viability ([5]; first compound 0.2 µM)
NCI-H1755	0.806	0.856	0.882	0.782	0.984	0.949	1.05	0.986	0.953	0.99	0.98	1.01	0.977	1.08	1.06	0.943	0.607	0.59	0.54	0.547
HCC-78	0.836	0.819	0.825	0.726	0.412	0.519	0.605	0.478	0.476	0.48	0.62	0.421	0.74	0.709	0.597	0.63	0.385	0.511	0.404	0.33
LOU-NH91	0.898	0.919	1.03	0.879	0.995	0.966	0.977	0.942	0.399	0.543	0.557	0.568	0.717	0.788	0.755	0.709	0.65	0.668	0.71	0.595
NCI-H322M	0.787	0.729	0.739	0.649	0.854	0.897	1.03	0.819	1.19	1.27	1.44	1.21	0.636	0.61	0.659	0.518	0.429	0.412	0.41	0.423
HCC-827	0.719	0.644	0.709	0.687	1.03	0.968	1.03	0.966	1	1.01	1.05	0.982	0.214	0.186	0.202	0.184	0.403	0.42	0.427	0.414
SW 1573	0.591	0.519	0.496	0.408	0.838	0.775	0.777	0.819	0.971	1.02	1.03	0.997	1.1	1.19	1.25	1.22	0.202	0.16	0.162	0.176
NCI-H1975	0.756	0.77	0.787	0.732	0.876	0.867	0.99	1.01	0.353	0.296	0.338	0.36	0.811	0.817	1.14	1.03	0.677	0.774	0.275	0.196
NCI-H1651	0.197	0.195	0.18	0.177	0.906	0.978	1.09	0.932	0.936	0.869	0.975	0.983	0.724	0.955	0.896	0.756	0.685	0.662	0.563	0.531
NCI-H460	0.335	0.395	0.412	0.397	0.74	0.795	1.1	0.744	1.01	0.98	1.06	0.974	0.942	0.853	1.08	0.876	0.407	0.526	0.19	0.0908
LCLC-97TM1	0.48	0.452	0.385	0.334		0.218		0.197	0.309	0.818	0.74	0.483		1		0.786	0.236	0.298	0.17	0.218
NCI-H838	0.758	0.771	0.795	0.669	0.939	1.05	1.19	0.858	0.903	1.05	0.698	0.817	0.911	1.04	1.03	0.813	0.275	0.271	0.286	0.256
NCI-H1355	0.668	0.709	0.817	0.739	0.833	0.916	1.08	0.947	1.09	1.11	1.25	1.19	0.939	0.947	1.17	1.02	0.566	0.542	0.582	0.455
HOP-62	0.313	0.172	0.211	0.355	0.902	0.663	0.868	0.773	0.728	0.571	0.597	0.701	0.929	0.987	0.856	0.91	0.303	0.348	0.317	0.33
NCI-H2085	0.808	0.814	0.9	0.754	0.831	0.831	1.09	0.741	0.98	1.15	1.25	1.03	0.733	0.815	0.843	0.879	0.722	0.849	0.662	0.576

Source: the supplement of paper PMC10307832
